doi:10.1101/2024.12.09.627564, “Cannabinoid inhibition of mechanosensitive K^+ channels” (bioRxiv, 2024)

Key:
[1] = design: method as in PMID 32804502; details: slice recordings; cited from earlier work
TRAAKG165R = target: T1, TRAAKG165R (Homo sapiens, UniProt Q9NYG8, G139R); test: Excised patch recording of TRAAK mutant G165R; assay type: biochemical
T1 construct: The transcribed messages encode H. sapiens TRAAK amino acids 1–393; expressed in transfected cells; host or cells: Xenopus laevis oocytes, cRNA injection
T1 sequence (Q9NYG8 1-393 G139R): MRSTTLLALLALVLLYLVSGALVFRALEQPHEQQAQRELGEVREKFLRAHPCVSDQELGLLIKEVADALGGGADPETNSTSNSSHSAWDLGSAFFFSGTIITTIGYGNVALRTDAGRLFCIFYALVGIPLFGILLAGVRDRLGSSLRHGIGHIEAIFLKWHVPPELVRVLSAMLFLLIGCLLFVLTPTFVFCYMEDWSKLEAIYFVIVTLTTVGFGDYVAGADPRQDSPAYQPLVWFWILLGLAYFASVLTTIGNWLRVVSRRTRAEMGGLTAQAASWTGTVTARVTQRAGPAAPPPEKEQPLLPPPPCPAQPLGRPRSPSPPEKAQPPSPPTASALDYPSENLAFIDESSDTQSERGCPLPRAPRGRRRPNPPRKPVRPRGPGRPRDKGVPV
Description: For patch clamp recording from Xenopus oocytes, genes encoding full-length Homo sapiens TRAAK (UniProt Q9NYG8–2), TREK-1 (UniProt O95069), and TREK-2 (UniProt P57789) were codon optimized for eukaryotic expression, synthesized (Genewiz), and cloned into a modified pGEMHE vector using Xho1 and EcoR1 restriction sites. The transcribed messages encode H. sapiens TRAAK amino acids 1–393, TREK-1 amino acids 1–426, or TREK-2 amino acids 1–538 with an additional three amino acids (SNS) at the C terminus. TRAAK mutants were introduced by polymerase chain reaction (PCR). Linearized DNA was transcribed in vitro using T7 polymerase. […] Currents were recorded at 25 °C from inside-out patches excised from oocytes 1 to 5 d after RNA injection. […]
(§1) Patches were evaluated with voltage-step protocols to confirm TRAAK expression and minimal non-specific leak based on reversal potential. Currents were recorded using an Axopatch 200B amplifier (Molecular Devices) at a bandwidth of 1 kHz and digitized with an Digidata 1550B (Molecular Devices) at 100–500 kHz using pClamp10.7 software. […] In an effort to minimize variability associated with differences in resting membrane tension, we targeted patches with low basal curvature and low resting channel activity and ensured measured pressure difference across the patch was as close to zero as possible at rest to prevent mechanical activation of channels. […]

Homo sapiens TREK-1 = target: T2, Homo sapiens TREK-1 (Homo sapiens, UniProt O95069); test: Excised inside-out patch recording of TREK-1 from Xenopus oocytes; assay type: biochemical
T2 construct: TREK-1 amino acids 1–426; expressed in transfected cells; host or cells: Xenopus laevis oocytes, cRNA injection
T2 sequence (O95069 1-426): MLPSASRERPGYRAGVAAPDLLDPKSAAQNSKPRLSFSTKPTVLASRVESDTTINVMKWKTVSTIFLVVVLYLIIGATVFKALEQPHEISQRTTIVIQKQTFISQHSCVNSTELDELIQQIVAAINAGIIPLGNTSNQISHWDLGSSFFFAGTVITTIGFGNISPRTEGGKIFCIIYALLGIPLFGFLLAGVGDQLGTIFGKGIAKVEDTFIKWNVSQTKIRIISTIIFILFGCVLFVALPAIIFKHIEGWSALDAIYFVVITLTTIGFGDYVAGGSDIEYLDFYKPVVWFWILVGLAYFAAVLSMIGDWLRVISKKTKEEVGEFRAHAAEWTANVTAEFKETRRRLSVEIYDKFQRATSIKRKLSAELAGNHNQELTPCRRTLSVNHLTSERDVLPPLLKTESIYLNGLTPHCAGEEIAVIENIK
Description: For patch clamp recording from Xenopus oocytes, genes encoding full-length Homo sapiens TRAAK (UniProt Q9NYG8–2), TREK-1 (UniProt O95069), and TREK-2 (UniProt P57789) were codon optimized for eukaryotic expression, synthesized (Genewiz), and cloned into a modified pGEMHE vector using Xho1 and EcoR1 restriction sites. The transcribed messages encode H. sapiens TRAAK amino acids 1–393, TREK-1 amino acids 1–426, or TREK-2 amino acids 1–538 with an additional three amino acids (SNS) at the C terminus. TRAAK mutants were introduced by polymerase chain reaction (PCR). Linearized DNA was transcribed in vitro using T7 polymerase. Complementary RNA (0.1 to 10 ng for TRAAK, TREK-1, TREK-2, and mutants) in 50 nL H2O was injected into Xenopus laevis oocytes extracted from anesthetized frogs. Currents were recorded at 25 °C from inside-out patches excised from oocytes 1 to 5 d after RNA injection. […]
as §1, with “channels. Data were analyzed using Clampfit 10.7, Excel, and Graphpad Prism software.” for “channels.”
To avoid cannabinoid absorption to plastic, cannabinoid solutions were made in glass vials and diluted by weight, perfusion was performed using glass tubing pulled from borosilicate glass Pasteur pipettes (Fisherbrand, Cat# 13–678-20C), and recordings were performed in glass chambers. Channel activity was continuously recorded during perfusion steps. […]

Question: Which “concentration at which antiepileptic effects are observed” value [1] does the source give for C=C(C)[C@@H]1CCC(C)=C[C@H]1c1c(O)cc(CCCCC)cc1O [CBD, Cannabidiol] here?
Answer: ≤ 100 nM

Question: And the IC50 (TRAAKG165R)?
Answer: 356 ± 18 nM

Question: And the IC50 (Homo sapiens TREK-1)?
Answer: 1500 nM

Question: What about the Hill-coefficient (Homo sapiens TREK-1; TREK-1 dose-response) of the same compound?
Answer: 1.5

Question: And the “fold less sensitive than TRAAK” value (Homo sapiens TREK-1; TREK-1 vs TRAAK)?
Answer: ~ 10 fold
